Here are results for 28 compounds from US11660293B2, “Substituted 2-azabicyclo[3.1.1]heptane and 2-azabicyclo[3.2.1]octane derivatives as orexin receptor antagonists” (Chronos Therapeutics Limited, priority 2017, dated 2023).

For assay [1], the target named is T1, human Orexin type 2 receptors (Homo sapiens (Human), UniProt O43614). As to the kind of experiment: Intracellular calcium measurement (FLIPR), antagonism of Orexin-A at EC80 in CHO-hOX2 cells.
Assay [2] deals with T2, human Orexin type 1 receptors (Homo sapiens (Human), UniProt O43613). In words: Intracellular calcium measurement (FLIPR), antagonism of Orexin-A at EC80 in CHO-hOX1 cells.
T2 sequence (O43613 whole entry): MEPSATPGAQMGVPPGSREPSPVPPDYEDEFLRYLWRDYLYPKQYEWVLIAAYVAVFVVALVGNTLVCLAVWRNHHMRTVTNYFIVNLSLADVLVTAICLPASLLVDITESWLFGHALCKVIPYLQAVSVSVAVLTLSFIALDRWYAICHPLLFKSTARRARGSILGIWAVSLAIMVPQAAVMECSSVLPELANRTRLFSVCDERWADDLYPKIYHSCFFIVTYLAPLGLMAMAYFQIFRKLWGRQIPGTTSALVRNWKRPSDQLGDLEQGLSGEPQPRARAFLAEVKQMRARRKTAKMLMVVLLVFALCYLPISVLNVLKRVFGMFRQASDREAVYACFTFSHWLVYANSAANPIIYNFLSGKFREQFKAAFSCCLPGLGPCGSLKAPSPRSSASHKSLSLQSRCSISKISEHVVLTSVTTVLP
The target of assay [3] is T2, human Orexin type 1 receptors. As to the kind of experiment: Scintillation Proximity Assay (SPA) binding assay, [3H]SB-674042 displacement, CHO-hOX1 membranes. The settings on record: Table 1, [3H]SB-674042 2 nM.
For assay [4], the target named is T1, human Orexin type 2 receptors. As to the kind of experiment: Scintillation Proximity Assay (SPA) binding assay, [3H]EMPA displacement, HEK-hOX2 membranes. The settings on record: Table 1, [3H]EMPA 2 nM.

T1 sequence (O43614 whole entry): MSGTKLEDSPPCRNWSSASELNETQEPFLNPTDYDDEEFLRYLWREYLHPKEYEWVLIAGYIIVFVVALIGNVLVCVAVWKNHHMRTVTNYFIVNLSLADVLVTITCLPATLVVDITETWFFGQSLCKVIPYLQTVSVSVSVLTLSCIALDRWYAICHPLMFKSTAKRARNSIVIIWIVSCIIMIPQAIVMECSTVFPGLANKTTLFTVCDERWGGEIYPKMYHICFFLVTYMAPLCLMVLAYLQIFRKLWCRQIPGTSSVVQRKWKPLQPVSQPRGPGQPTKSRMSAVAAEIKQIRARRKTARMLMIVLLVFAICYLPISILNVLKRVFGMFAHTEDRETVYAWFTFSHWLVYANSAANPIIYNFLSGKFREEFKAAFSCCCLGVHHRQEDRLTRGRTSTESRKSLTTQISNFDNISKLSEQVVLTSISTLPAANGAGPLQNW

On to `Cc1ccc(-c2ncccn2)c(C(=O)N2C(COc3ccc(Cl)cc3)CC3CC2C3)c1` (stereo not shown) [Example 19], for which the Ki in assay [1] was 977 nM; in assay [2], 91.2 nM.
The like results for `Cc1ccc(-c2ncccn2)c(C(=O)N2C(COc3ccc(F)cc3)CC3CC2C3)c1` (racemic) [Example 16] were, in that order, 537 nM and 28.8 nM.
`Cc1ccc(-c2ncccn2)c(C(=O)N2C(COc3ccc(F)cc3)CC3CC2C3)n1` (single isomer, unassigned) [Example 15, (3S or 3R) 3-(4-fluorophenoxymethyl)-2-{[6-methyl-3-(pyrimidin-2-yl)pyridin-2-yl]carbonyl}-2-azabicyclo[3.1.1]heptane]: the Ki in assay [1] was 52.5 nM; in assay [2], 4.07 nM.
As to `Cc1ccc(-c2nccs2)c(C(=O)N2C(COc3ccc(F)cn3)CC3CC2C3)n1` (stereo not shown) [Example 31], the inhibition constant Ki in assay [1] is 776 nM; in assay [2], 97.7 nM.
Consider `Cc1nc(C(=O)N2C(COc3ccc(F)cc3)CC3CC2C3)c(-c2ccccc2)s1` (single isomer, unassigned) [Example 3, (3S or 3R) 3-[(4-fluorophenoxy)methyl]-2-(2-methyl-5-phenyl-1,3-thiazole-4-carbonyl)-2-azabicyclo[3.1.1]heptane], for which the Ki in assay [1] was 81.3 nM; in assay [2] it was 2.34 nM.
In the case of `Cc1ccc(-c2ncccn2)c(C(=O)N2C3CC(C3)[C@@H](C)C2COc2ccc(F)cn2)c1` (stereo partly shown) [Example 74], the Ki in assay [1] was 589 nM; in assay [2], 28.8 nM.
Consider `Cc1ccc(-c2ncccn2)c(C(=O)N2C(COc3ccc(C(F)(F)F)cn3)CC3CC2C3)c1` (single isomer, unassigned) [Example 36, (3S or 3R) 2-{[5-methyl-2-(pyrimidin-2-yl)phenyl]carbonyl}-3-({[5-(trifluoromethyl)pyridin-2-yl]oxy}methyl)-2-azabicyclo[3.1.1]heptane], for which the Ki in assay [1] is 200 nM; in assay [2], 67.6 nM.
For `Cc1nc(C(=O)N2C(COc3ccc(F)cn3)CC3CC2C3)c(-c2ccccc2)s1` (stereo not shown) [Example 24], the Ki was 759 nM in assay [1] and 46.8 nM in assay [2].
With `Cc1nc(C(=O)N2C3CC(C3)C(C)C2COc2cnc3ccc(Cl)cc3n2)c(-c2ccccc2)s1` (mixture of isomers) [Example 84, CIS/TRANS 7-chloro-2-{[4-methyl-2-(2-methyl-5-phenyl-1,3-thiazole-4-carbonyl)-2-azabicyclo[3.1.1]heptan-3-yl]methoxy}quinoxaline], the Ki in assay [1] is 1860 nM; in assay [2], 75.9 nM.
Consider `Cc1ccc(-c2nccs2)c(C(=O)N2C(COc3ccc(F)cn3)CC3CC2C3)c1` (racemic) [Example 25], for which the inhibition constant Ki in assay [1] is 209 nM; in assay [2], 30.2 nM.
On to `Cc1ccc(-c2ncccn2)c(C(=O)N2C(CCOc3ccc(F)cc3)CC3CC2C3)c1` (racemic) [Example 41], for which the inhibitory constant (Ki) in assay [1] was 224 nM; in assay [2], 22.4 nM.
With `Cc1ccc(-c2ncccn2)c(C(=O)N2C3CC(C3)[C@@H](C)[C@@H]2COc2ccc(F)cn2)n1` (single isomer, unassigned) [Example 82, (3S,4S or 3R,4R) 3-{[(5-fluoropyridin-2-yl)oxy]methyl}-4-methyl-2-[6-methyl-3-(pyrimidin-2-yl)pyridin-2-carbonyl]-2-azabicyclo[3.1.1]heptane], the values for the Ki in assay [1] and in assay [2] were 2240 nM and 10 nM, respectively.
Regarding `Cc1nc(C(=O)N2C(COc3ccc(F)cc3)CC3CC2C3)c(-c2ccccc2)s1` (racemic) [Example 1], the “OX1 pKi (SPA binding)” value in assay [3] worked out at 8.14. In assay [4], the “OX2 pKi (SPA binding)” value is 6.97. In addition, the Ki was 295 nM in assay [1] and 6.31 nM in assay [2].
With `Cc1ccc(-c2nccs2)c(C(=O)N2C(COc3ccc(F)cc3)CC3CC2C3)n1` (racemic) [Example 4], the results for the inhibitory constant (Ki) in assay [1] and in assay [2] were 162 nM and 5.75 nM, respectively.
For the compound `Cc1ccc(-c2nccs2)c(C(=O)N2C(COc3ccc(F)cc3)CC3CC2C3)c1` (single isomer, unassigned) [Example 9, (3S or 3R) 3-(4-fluorophenoxymethyl)-2-{[5-methyl-2-(1,3-thiazol-2-yl)phenyl]carbonyl}-2-azabicyclo[3.1.1]heptane], the results for the Ki in assay [1] and in assay [2] were 79.4 nM and 3.98 nM, respectively.
On the same counts, the results for `Cc1ccc(-n2nccn2)c(C(=O)N2C(COc3ccc(F)cc3)CC3CC2C3)c1` (single isomer, unassigned) [Example 12, (3S or 3R) 3-(4-fluorophenoxymethyl)-2-{[5-methyl-2-(2H-1,2,3-triazol-2-yl)phenyl]carbonyl}-2-azabicyclo[3.1.1]heptane] are 1050 nM and 27.5 nM.
The like results for `Cc1ccc(-c2ncccn2)c(C(=O)N2C(COc3ccc(F)cc3)CC3CC2C3)c1` (single isomer, unassigned) [Example 17, (3S or 3R) 3-(4-fluorophenoxymethyl)-2-{[5-methyl-2-(pyrimidin-2-yl)phenyl]carbonyl}-2-azabicyclo[3.1.1]heptane] were, in that order, 355 nM and 15.1 nM.
With `Cc1nc(C(=O)N2C3CC(C3)C(C)C2COc2cc3ccccc3cn2)c(-c2ccccc2)s1` (mixture of isomers) [Example 85, CIS/TRANS 3-{[4-methyl-2-(2-methyl-5-phenyl-1,3-thiazole-4-carbonyl)-2-azabicyclo[3.1.1]heptan-3-yl]methoxy}isoquinoline], the inhibition constant (Ki) was 1050 nM in assay [1] and 6.31 nM in assay [2].
Take `Cc1ccc(-c2nccs2)c(C(=O)N2C(COc3ccc(F)cc3)CC3CC2C3)c1` (racemic) [Example 7]: the Ki in assay [1] is 141 nM; in assay [2] it was 7.08 nM.
The like results for `Cc1ccc(-n2nccn2)c(C(=O)N2C(COc3ccc(F)cc3)CC3CC2C3)c1` (racemic) [Example 10] were, in that order, 347 nM and 14.8 nM.
On the same counts, the results for `Cc1nc(C(=O)N2C3CC(C3)C(C)C2COc2ccc(F)cc2)c(-c2ccccc2)s1` (mixture of isomers) [Example 64, CIS/TRANS 3-(4-fluorophenoxymethyl)-4-methyl-2-(2-methyl-5-phenyl-1,3-thiazole-4-carbonyl)-2-azabicyclo[3.1.1]heptane] are 282 nM and 3.16 nM.
The like results for `Cc1ccc(-c2ncccn2)c(C(=O)N2C3CC(C3)C(C)C2COc2ccc(F)cc2)c1` (mixture of isomers) [Example 69, CIS/TRANS 3-(4-fluorophenoxymethyl)-4-methyl-2-[5-methyl-2-(pyrimidin-2-yl)benzoyl]-2-azabicyclo[3.1.1]heptane] were, in that order, 295 nM and 12.9 nM.
In the case of `Cc1ccc(-c2ncccn2)c(C(=O)N2C(COc3ccc(F)cc3)CC3CC2C3)n1` (racemic) [Example 13], the results for the inhibition constant (Ki) in assay [1] and in assay [2] were 170 nM and 7.76 nM, respectively.
In the case of `Cc1ccc(-c2ncccn2)c(C(=O)N2C3CC(C3)[C@H](C)[C@H]2COc2ccc(F)cc2)c1` (single isomer, unassigned) [Example 70, (3S,4S or 3R,4R) 3-(4-fluorophenoxymethyl)-4-methyl-2-[5-methyl-2-(pyrimidin-2-yl)benzoyl]-2-azabicyclo[3.1.1]heptane], the inhibitory constant (Ki) in assay [1] was 2450 nM; in assay [2], 13.5 nM.
For the compound `Cc1ccc(-c2ncccn2)c(C(=O)N2C(COc3ccc(Cl)cn3)CC3CC2C3)c1` (racemic) [Example 32], the figures for the Ki in assay [1] and in assay [2] were 513 nM and 72.4 nM, respectively.
As to `Cc1ccc(-c2ncccn2)c(C(=O)N2C3CC(C3)[C@@H](C)[C@H]2COc2ccc(F)cc2)c1` (single isomer, unassigned) [Example 71, (3S,4R or 3R,4S) 3-(4-fluorophenoxymethyl)-4-methyl-2-[5-methyl-2-(pyrimidin-2-yl)benzoyl]-2-azabicyclo[3.1.1]heptane], the figures for the inhibition constant (Ki) in assay [1] and in assay [2] were 89.1 nM and 3.39 nM, respectively.
`Cc1ccc(-n2nccn2)c(C(=O)N2C(COc3ccc(F)cn3)CC3CC2C3)c1` (single isomer, unassigned) [Example 29, (3S or 3R) 3-{[(5-fluoropyridin-2-yl)oxy]methyl}-2-{[5-methyl-2-(2H-1,2,3-triazol-2-yl)phenyl]carbonyl}-2-azabicyclo[3.1.1]heptane]: the Ki is 617 nM in assay [1] and 46.8 nM in assay [2].
The like results for `Cc1nc(C(=O)N2C3CC(C3)[C@@H](C)[C@@H]2COc2ccc(F)cc2)c(-c2ccccc2)s1` (single isomer, unassigned) [Example 67, (3S,4S or 3R,4R) 3-(4-fluorophenoxymethyl)-4-methyl-2-(2-methyl-5-phenyl-1,3-thiazole-4-carbonyl)-2-azabicyclo[3.1.1]heptane] were, in that order, 562 nM and 1.38 nM.
